Reference: patent US20040086888A1, “Method for tandem genomic/proteomic analysis of proliferating cells” (priority 2003, published 2004)

Key:
human breast tumor cells = experiment: Hormonal therapy inhibition of cell proliferation (Example 6); assay type: cell-based
fibroblast cell line = experiment: Immunoperoxidase staining for intermediate filaments; assay type: cell-based; details: immunoperoxidase technique, cells in culture
From the text: (§1) The technique is practiced as follows. The same cell culturing and well distribution process is used as in the cytotoxicity assay described above, but rather than exposing the cells to chemotherapeutic or other agents, the cells are instead fixed and stained. With the stain or stain cocktail described below, the epithelial cells are identified by their intermediate filaments and/or specific membrane antigens by means of a monoclonal antibody immunoperoxidase technique. […] The fixed stained cells are then counted. If the specimen is positive for epithelial cells, the process is complete. If the specimen is negative for epithelial cells, an independent fixing and staining process is subsequently completed, with fresh cells from identical wells, using Vimentin as a stain to confirm the non-epithelial nature of the cells.
(§2) Many tumor specimens will contain a mixture of cancer and normal cells. Although in many cases tumor cells will readily grow in tissue culture while the normal cells will not, it is important to be able to distinguish the two cell types. Using immunoperoxidase techniques to stain cells for various intermediate filaments, the differences between normal (fibroblast-like) cells and cells from epithelial tumors were characterized. These techniques can also be used to identify other tumor cell characteristics which may have prognostic value. […]

[1] = system: epithelial tumor cell lines; experiment: as above; assay type: cell-based; details: immunoperoxidase technique, cells in culture
From the text: as §1, §2

[2] = system: human ovarian tumor cells; experiment: Combination chemotherapy microtiter assay (Example 5); details: four tumor specimens
tumor cells in culture = experiment: Microtiter well assay of drug/radiation interaction (FIGS. 8A-8C); assay type: cell-based; details: Taxol 8.5 ng/ml or 42.5 ng/ml + 2 Gy and 4 Gy versus radiation-only
From the text: The microtiter well assay is ideally suited for examination of the interaction of chemotherapeutic agents and radiation. Issues such as the differential sensitivity of drug/radiation combinations and the timing of drug/radiation combinations may be directly addressed with this system.

[3] = system: human brain tumor and human ovarian tumor cells; experiment: Combined modality drug/radiation microtiter assay (Example 8); assay type: cell-based; details: Taxol 0.5-25.0 μM with 2 Gy, or Taxol 5 μM with 1 Gy-6 Gy; through five days post-treatment
Method: Twenty-four hours post-plating, cells in the microtiter plate wells were exposed to the chemotherapeutic agent Taxol. One set of plates was designed to have escalating Taxol doses with (0.5-25.0 μM) with a fixed radiation dose (2 Gy). A second set of plates was designed to have a fixed Taxol dose (5 μM) with an escalating radiation dose (1 Gy-6 Gy). The cells in the plates were irradiated using a Siemans Stabilipan X-ray machine operating at 250 kVp, 15 mA with a dose rate of 75 rad/min.
For each of the two treatment schema, cell number per well was monitored as a function of time through five days post-treatment. Cell number relative to controls was determined and survival curves were fit.

CC/C(=C(\c1ccccc1)c1ccc(OCCN(C)C)cc1)c1ccccc1 [Tamoxifen]
inhibition of cell proliferation (cell number relative to control) (human breast tumor cells; 10 nM to 20 μM, six doses, 24 h exposure, then 72 h incubation, four breast tumor specimens): two of the four breast specimens tested showed an inhibition of cell proliferation
concentration range in which the responses occurred (human breast tumor cells; range tested 10 nM to 20 μM): mid-to-high

Vimentin
staining of fibroblasts (fibroblast cell line): all fibroblast cells were positive
staining of epithelial tumor cells [1]: mildly positive

N.N.O=C([O-])C1(C(=O)[O-])CCC1.[Pt+2] [carboplatin]
cell number relative to control ([2]; fixed Taxol (5 μM) with escalating carboplatin (50, 200, 1000 μM)): a dose response relationship was observed

CC(=O)O[C@H]1C(=O)[C@@]2(C)[C@H]([C@H](OC(=O)c3ccccc3)[C@]3(O)C[C@H](OC(=O)[C@H](O)[C@@H](NC(=O)c4ccccc4)c4ccccc4)C(C)=C1C3(C)C)[C@]1(OC(C)=O)CO[C@@H]1C[C@@H]2O [Taxol]
effect on radiation response (survival rates) (tumor cells in culture): enhancement of radiation response
cell killing in combination with radiation (cell number relative to controls, survival curves) [3]: Both additive and synergistic cell killing were noted
cell number relative to control ([2]; escalating Taxol (1.0, 5.0, 25 μM) with fixed carboplatin (200 μM)): a dose response relationship was observed
